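Assay format: 96-well plates, 48-hour exposure. The concentration for full growth arrest is given as TGI.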
Tests used:
Experiment in all cases: growth of human tumour cells (NCI), 48 h
NCI-H226 lung = tested on: NCI-H226 lung
EKVX NSCLC = tested on: EKVX NSCLC
HCC-2998 colon = tested on: HCC-2998 colon
COLO 205 colon = tested on: COLO 205 colon
HOP-62 NSCLC = tested on: HOP-62 NSCLC
M14 melanoma = tested on: M14 melanoma
786-0 renal = tested on: 786-0 renal
DU-145 prostate = tested on: DU-145 prostate
SNB-75 CNS = tested on: SNB-75 CNS
SK-MEL-28 melanoma = tested on: SK-MEL-28 melanoma
ACHN renal = tested on: ACHN renal
SK-MEL-5 melanoma = tested on: SK-MEL-5 melanoma
CAKI-1 renal = tested on: CAKI-1 renal
MOLT-4 leukemia = tested on: MOLT-4 leukemia
PC-3 prostate = tested on: PC-3 prostate
MDA-MB-435 = tested on: MDA-MB-435
UACC-62 melanoma = tested on: UACC-62 melanoma
SW-620 colon = tested on: SW-620 colon
TK-10 renal = tested on: TK-10 renal
CCRF-CEM leukemia = tested on: CCRF-CEM leukemia
UACC-257 melanoma = tested on: UACC-257 melanoma
KM12 colon = tested on: KM12 colon
RPMI-8226 leukemia = tested on: RPMI-8226 leukemia
U251 CNS = tested on: U251 CNS
UO-31 renal = tested on: UO-31 renal
NCI-H522 lung = tested on: NCI-H522 lung
LOX IMVI melanoma = tested on: LOX IMVI melanoma
SF-295 CNS = tested on: SF-295 CNS
BT-549 breast = tested on: BT-549 breast
A498 renal = tested on: A498 renal
SR leukemia = tested on: SR leukemia
SK-MEL-2 melanoma = tested on: SK-MEL-2 melanoma
IGROV1 ovarian = tested on: IGROV1 ovarian
A549 NSCLC = tested on: A549 NSCLC
OVCAR-4 ovarian = tested on: OVCAR-4 ovarian
T-47D breast = tested on: T-47D breast
HCT-15 colon = tested on: HCT-15 colon
SNB-19 CNS = tested on: SNB-19 CNS
HS 578T breast = tested on: HS 578T breast
HT29 colon = tested on: HT29 colon
OVCAR-5 ovarian = tested on: OVCAR-5 ovarian
MDA-MB-231 breast = tested on: MDA-MB-231 breast
MALME-3M melanoma = tested on: MALME-3M melanoma
NCI-H23 lung = tested on: NCI-H23 lung
HOP-92 NSCLC = tested on: HOP-92 NSCLC
SF-268 CNS = tested on: SF-268 CNS
HCT-116 colon = tested on: HCT-116 colon
MDA-N = tested on: MDA-N
SN12C renal = tested on: SN12C renal
OVCAR-3 ovarian = tested on: OVCAR-3 ovarian
SK-OV-3 ovarian = tested on: SK-OV-3 ovarian
K-562 leukemia = tested on: K-562 leukemia
NCI-H460 lung = tested on: NCI-H460 lung
HL-60(TB) leukemia = tested on: HL-60(TB) leukemia

Measured: TGI

Cc1cccc(/C=C2\CCCCCC2=O)c1
> 100 µM: NCI-H226 lung | EKVX NSCLC | HCC-2998 colon | COLO 205 colon | HOP-62 NSCLC | M14 melanoma | 786-0 renal | DU-145 prostate | SNB-75 CNS | SK-MEL-28 melanoma | ACHN renal | SK-MEL-5 melanoma | CAKI-1 renal | MOLT-4 leukemia | PC-3 prostate | MDA-MB-435 | UACC-62 melanoma | SW-620 colon | TK-10 renal | UACC-257 melanoma | KM12 colon | RPMI-8226 leukemia | U251 CNS | UO-31 renal | NCI-H522 lung | LOX IMVI melanoma | SF-295 CNS | BT-549 breast | A498 renal | SR leukemia | SK-MEL-2 melanoma | IGROV1 ovarian | A549 NSCLC | OVCAR-4 ovarian | T-47D breast | HCT-15 colon | SNB-19 CNS | HS 578T breast | HT29 colon | OVCAR-5 ovarian | MDA-MB-231 breast | MALME-3M melanoma | NCI-H23 lung | HOP-92 NSCLC | SF-268 CNS | HCT-116 colon | MDA-N | SN12C renal | OVCAR-3 ovarian | SK-OV-3 ovarian | K-562 leukemia | NCI-H460 lung | HL-60(TB) leukemia
82.8 µM: CCRF-CEM leukemia
